Data reported in patent US20220290095A1, “Bifidobacterium breve CCFM1025, Food Fermented Thereby and Application Thereof” (Jiangnan University, priority 2018, published 2022).

What was measured:
5-HT in the serum = assay: 5-HT in serum of depressed mice (ELISA); format: in vivo, C57BL/6J mice; conditions: concluded from serum 5-HT, FIG. 4
Procedure: (§1) 32 6-week-old male C57BL/6J mice were selected. After one week of adaptation to the environment, the mice were randomly divided into four groups according to body weight: a control group, a model group, a fluoxetine intervention group, and a CCFM1025 intervention group, each containing 8 mice.
(§2) Chronic unpredictable stress depression mouse model: 1-2 kinds of stimuli were randomly performed every day, and the performance time of stimuli every day was determined randomly to avoid the circadian rhythm. Each method was used for not more than three times, and the stimuli were performed for five weeks. The stimuli include: (1) fasting for 24 h; (2) water deprivation+empty bottle stimulus for 24 h; (3) tail pinching for 3 min; (4) wet padding for 24 h; (5) immobilization for 1-2 h; (6) […] for 24 h; (7) continuous lighting for 24 h; (8) no padding for 24 h; (9) forced swim for 15 min; and (10) separation for 24 h.
Lactic acid bacteria gavage: the activated second generation of Bifidobacterium CCFM1025 was taken and cultured at 37° C. for 24 h, and the bacteria were collected after centrifugation at 4° C. and 8000 r/min for 3 min. […]
The serum collected in Example 3 was taken and the content of 5-HT in the serum was measured using an ELISA kit. […]

[1] = test system: depressed mice (chronic unpredictable stress depression mouse model); assay: Depression-like behaviors of depressed mice (behavioral tests overall); format: in vivo, C57BL/6J mice
Procedure: as §1, §2
Lactic acid bacteria gavage: the activated second generation of Bifidobacterium CCFM1025 was taken and cultured at 37° C. for 24 h, and the bacteria were collected after centrifugation at 4° C. and 8000 r/min for 3 min. The supernatant was discarded and the bacteria were resuspended with 5% sterilized skim milk to make the concentration of lactic acid bacteria reach 5×10^9 CFU/mL. The gavage volume is 0.2 mL/mouse/day. […]

CNCCC(Oc1ccc(C(F)(F)F)cc1)c1ccccc1 (centres unmarked) [fluoxetine]
intestinal peristalsis / intestinal function (5-HT in the serum): cannot improve the intestinal function
depression-like behaviors / antidepressant effect [1]: has an antidepressant effect
